For orientation: melting point means the temperature, or range, at which the solid turns liquid.

One data set relates to Heliothis virescens. Nature of the data set: Action against Heliothis virescens caterpillars (sprayed soybean plants). Conditions: 144 h, 400 ppm spray mixture, caterpillars in the first stage, evaluation 6 days later, read-out: percentage reduction in population and percentage reduction in feeding damage (% activity). The class given is in vivo. On the procedure:
Young soybean plants are sprayed with an aqueous emulsion spray mixture comprising 400 ppm of test compound. After the spray-coating has dried, the soybean plants are populated with 10 caterpillars of Heliothis virescens in the first stage and placed in a plastics container. Evaluation is made 6 days later. The percentage reduction in population and the percentage reduction in feeding damage (% activity) are determined by comparing the number of dead caterpillars and the feeding damage on the treated plants with that on the untreated plants.
Consider `COC(=O)Nc1ccc(OCCCOc2c(Cl)cc(OCC=C(Cl)Cl)cc2Cl)cc1` [Compound 1.3], for which the inhibition at 400 ppm was above 80%.
Turning to `CCOC(=O)Nc1ccc(OCCCOc2c(Cl)cc(OCC=C(Cl)Cl)cc2Cl)cc1` [Compound 1.4], the inhibition at 400 ppm was above 80%.
With `CC(C)(C)OC(=O)Nc1ccc(OCCCOc2c(Cl)cc(OCC=C(Cl)Cl)cc2Cl)cc1` [Compound 1.6, (4-{3-[2,6-Dichloro-4-(3,3-dichloroallyloxy)-phenoxy]-propoxy}-phenyl)-carbamic acid tert-butyl ester], the inhibition at 400 ppm is above 80%.
Turning to `C#CCOC(=O)Nc1ccc(OCCCOc2c(Cl)cc(OCC=C(Cl)Cl)cc2Cl)cc1` [Compound 1.10], the inhibition at 400 ppm was above 80%.

Test system in a further data set: not given
Assay: not given
Details: not given
`O=C(Nc1ccc(OCCCOc2c(Cl)cc(OCC=C(Cl)Cl)cc2Cl)cc1)c1ccccc1Cl` [Compound 1.19] yielded a melting point of 107 to 111 °C.
Compound `Cc1ccccc1C(=O)Nc1ccc(OCCCOc2c(Cl)cc(OCC=C(Cl)Cl)cc2Cl)cc1` [Compound 1.20] displayed a melting point of 89 to 92 °C.
Same read-out and setting: the same measure for `O=C(Nc1ccc(OCCCOc2c(Cl)cc(OCC=C(Cl)Cl)cc2Cl)cc1)c1ccccc1Br` [Compound 1.21]: 112 to 114 °C; for `O=C(Nc1ccc(OCCCOc2c(Cl)cc(OCC=C(Cl)Cl)cc2Cl)cc1)c1c(F)cccc1F` [Compound 1.22]: 95 to 97 °C.
As for `O=C(Nc1ccc(OCCCOc2c(Cl)cc(OCC=C(Cl)Cl)cc2Cl)cc1)c1ccc(F)cc1F` [Compound 1.23], the melting point lay within 89 to 91 °C.
`O=C(Nc1ccc(OCCCOc2c(Cl)cc(OCC=C(Cl)Cl)cc2Cl)cc1)c1ccccc1C(F)(F)F` [Compound 1.24] showed a melting point of 118 to 121 °C.
Same read-out and setting: the same measure for `O=C(Nc1ccc(OCCCOc2c(Cl)cc(OCC=C(Cl)Cl)cc2Cl)cc1)c1ccco1` [Compound 1.25]: 108 to 113 °C.
With `O=C(Nc1ccc(OCCCOc2c(Cl)cc(OCC=C(Cl)Cl)cc2Cl)cc1)c1cccs1` [Compound 1.26], the melting point fell in the range of 83 to 90 °C.

The values above are taken from patent US7414064B2, “4-(3,3-dihalo-allyloxy) phenoxy alkyl derivatives” (Syngenta Crop Protection, Inc., priority 2002, dated 2008).
